One assay has as its target Hmdm2 (Homo sapiens, UniProt Q00987). As to the kind of experiment: Selectivity (% A in 1 μM), ubiquitin ligase activity of Hmdm2. The assay is classed as biochemical. Conditions: read-out: Selectivity (% A* in 1 μM) Hmdm2.
Another assay deals with T1, POSH (Homo sapiens, UniProt Q7Z6J0).
T1 construct: GST-POSH lot NB81/p.118 3.6 mg/ml; fused on or other part: GST tag, used for detection with anti-GST XL665
T1 sequence (Q7Z6J0 1-269 limits assumed): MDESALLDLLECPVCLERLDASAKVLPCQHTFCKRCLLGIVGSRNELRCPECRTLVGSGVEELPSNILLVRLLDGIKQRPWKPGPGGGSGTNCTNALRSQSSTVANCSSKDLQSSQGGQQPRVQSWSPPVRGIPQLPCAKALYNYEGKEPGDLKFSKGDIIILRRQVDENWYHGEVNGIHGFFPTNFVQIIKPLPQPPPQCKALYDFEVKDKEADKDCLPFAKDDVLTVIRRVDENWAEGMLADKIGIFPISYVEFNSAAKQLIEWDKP
Kind of assay: Selectivity (% A in 1 μM), ubiquitin ligase activity of POSH. The assay is classed as biochemical. Conditions: read-out: Selectivity (% A* in 1 μM) POSH. Here is the method:
Experimental Protocols: 1. HTS Screening Assay Procedure • Microplates 10109D to 10114D compounds at 1 mM. • (Controls in column 1). • All compounds were perchase from ChemBridge corporation: ChemBridge corporation 16981 Via Tazon, Suite G San Diego, Calif. 92127 a. Microplates Labeling • Put labels to 6 PS U-bottom clear microplate. • Put labels to 18 black microplates (triplicats). b. Microplates Preparation • Put 100 μl GST-POSH at 33 nM in wells of the clear PS U-bottom microplates (exept wells A1-D1). • Negative control: place 100 μl dH2O in wells A1-D1. • (Positive control: place 100 μl GST-POSH at 33 nM in wells E1-H1). • Put 8 μl enzymes solution ×4 to black microplates (column 1 to 11). c. Incubation of E3 with Compounds • Transfer 5 μl of compounds (at 1 mM) to the microplates containing 100 μl GST-POSH. • Add 5 μl of DMSO to controls column 1. • Incubation 30 minutes at RT. d. […] 2. […] Microplates Labeling • Put labels to 4 clear PP clear microplate (18.2 μM, 9.1 uM, 1.82 uM, 910 nM,). • Put labels to 5 clear PS U-bottom clear microplate 4.44 μM, 909, 444, 91 and 44 nM) • Put labels to 15 black microplates (triplicates). f. Original Microplate Dilutions • Put DMSO 40 μl to (18.2 μM, 1.82 uM plates) and 20 ul to (9.1 uM, 910 nM plates. • Mix by pipetation the original microplate (3× up and down 45 μl). • Transfer 10 μl of compounds from the original microplate (at 91 μM) to the next microplate (=18.2 μM) on splitting apparatus. • Mix by pipetation the 18.2 uM microplate (3× up and down 45 μl). • Transfer 20 μl of compounds from the 18.2 uM microplate to the next microplate (=9.1 μM) on splitting apparatus. • Mix by pipetation the 9.1 uM microplate (3× up and down 45 μl). • Transfer 10 μl of compounds from the 9.1 uM microplate to the next microplate (=1.82 μM) on splitting apparatus. • Mix by pipetation the 1.82 uM microplate (3× up and down 45 μl). • Transfer 20 μl of compounds from the 1.82 uM microplate to the next microplate (=910 nM) on splitting apparatus • Mix by pipetation. g. Microplates Preparation • Put 123 μl GST-POSH at 33 nM in wells of the 5 clear PS U-bottom clear microplates. • Positive control: place 123 μl GST-POSH at 33 nM in well A12-h12 13 μl DMSO. • Negative control: place 123 μl dH2O in well B1 and 13 μl DMSO. • Put 8 μl enzymes solution ×4 to 15 black microplates. • Controls: put 8 μl enzymes solution ×4 to wells A1 to F1. h. Incubation of POSH with Compounds • Take 7 μl of compounds at original plate (91 μM) and put into the 4.44 μM labeled microplate containing 123 μl GST-POSH, on splitting apparatus. • Mix by pipetation (3× up and down 115 μl), note time. • Take 7 μl of compounds at 18.2 μM and put into the 910 nM labeled microplate containing 123 μl GST-POSH, on splitting apparatus. • Mix by pipetation (3× up and down 115 μl), note time. • Take 7 μl of compounds at 9.1 μM and put into the 444 nM labeled microplate containing 123 μl GST-POSH, on splitting apparatus. • Mix by pipetation (3× up and down 115 μl), note time. • Take 7 μl of compounds at […] and put into the 91 nM labeled microplate containing 123 μl GST-POSH, on splitting apparatus. • Mix by pipetation (3× up and down 115 μl), note time. • Take 7 μl of compounds at 91.0 nM and put into the 44 nM labeled microplate containing 123 μl GST-POSH, on splitting apparatus. • Mix by pipetation (3× up and down 115 μl), note time. • Incubation 30 minutes at RT. i.

Where [1] appears, read: % activity at 1 μM compound, control is related to 100% activity, HTS protocol.

Like-named read-outs stand apart in the source and are kept apart here.

Chain of Hmdm2 (Q00987 whole entry): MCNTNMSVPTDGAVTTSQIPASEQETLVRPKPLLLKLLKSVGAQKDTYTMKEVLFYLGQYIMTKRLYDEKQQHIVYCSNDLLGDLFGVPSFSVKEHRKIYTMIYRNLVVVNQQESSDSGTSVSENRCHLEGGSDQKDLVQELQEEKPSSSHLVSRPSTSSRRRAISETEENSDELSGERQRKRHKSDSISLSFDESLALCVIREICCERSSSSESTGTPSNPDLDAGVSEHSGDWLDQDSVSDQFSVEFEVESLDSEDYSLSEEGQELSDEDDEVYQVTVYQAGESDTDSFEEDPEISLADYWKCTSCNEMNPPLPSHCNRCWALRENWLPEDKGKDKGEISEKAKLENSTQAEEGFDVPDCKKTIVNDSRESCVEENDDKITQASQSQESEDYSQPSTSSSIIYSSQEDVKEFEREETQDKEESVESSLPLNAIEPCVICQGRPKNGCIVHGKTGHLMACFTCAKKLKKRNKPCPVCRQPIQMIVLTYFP

`O=C1C=CC(=O)N1c1ccccc1Cl` [Compound 18]: the remaining activity at 1 µM at Hmdm2 was 101%; on POSH, 24%.
On to `Cc1ccc2nc(-c3ccc(/N=C/c4ccc([N+](=O)[O-])s4)cc3)sc2c1` [Compound 72], for which the remaining activity at 1 µM on Hmdm2 (setting [1]) came to 124%; at POSH (setting [1]), 39%.
For `O=C1NC(=O)C(=Cc2ccc(-c3cc(Cl)ccc3Cl)o2)C(=O)N1` [Compound 1], the remaining activity at 1 µM at Hmdm2 worked out at 105%; at POSH, 19%.
With `CC(=C\c1ccccc1)/C=C1/SC(=N)NC1=O` [Compound 31], the remaining activity at 1 µM at Hmdm2 (setting [1]) amounted to 102%; at POSH (setting [1]) it was 105%.
On to `O=C(O)c1ccc(-c2ccc(/C=c3\sc4nc5ccccc5n4c3=O)o2)cc1` [Compound 28], for which the remaining activity at 1 µM on Hmdm2 stood at 90%; on POSH, 26%.
In the case of `O=C1/C(=C\c2ccc(Cl)c([N+](=O)[O-])c2)Sc2ccccc21` [Compound 50], the results for the remaining activity at 1 µM on Hmdm2 (setting [1]) and at POSH (setting [1]) were 98% and 39%, respectively.

The values are drawn from US7659277B2, “Ubiquitin ligase inhibitors and methods related thereto” (Proteologies, Ltd., priority 2003, dated 2010).
